Assay results as given in the NIST ThermoML archive (doi:10.1021/acs.jced.8b01008).

Settings: 100 kPa, Liquid, Falling or rolling sphere viscometry

O [water]
Settings | viscosity [mPa·s]
288.15 K | 1.122
293.15 K | 0.99
298.15 K | 0.882
303.15 K | 0.793
308.15 K | 0.719
313.15 K | 0.656
318.15 K | 0.602
